In test [1] the target is T1, Nuclear receptor ROR-gamma (Homo sapiens, UniProt P51449).
T1 sequence (P51449 whole entry): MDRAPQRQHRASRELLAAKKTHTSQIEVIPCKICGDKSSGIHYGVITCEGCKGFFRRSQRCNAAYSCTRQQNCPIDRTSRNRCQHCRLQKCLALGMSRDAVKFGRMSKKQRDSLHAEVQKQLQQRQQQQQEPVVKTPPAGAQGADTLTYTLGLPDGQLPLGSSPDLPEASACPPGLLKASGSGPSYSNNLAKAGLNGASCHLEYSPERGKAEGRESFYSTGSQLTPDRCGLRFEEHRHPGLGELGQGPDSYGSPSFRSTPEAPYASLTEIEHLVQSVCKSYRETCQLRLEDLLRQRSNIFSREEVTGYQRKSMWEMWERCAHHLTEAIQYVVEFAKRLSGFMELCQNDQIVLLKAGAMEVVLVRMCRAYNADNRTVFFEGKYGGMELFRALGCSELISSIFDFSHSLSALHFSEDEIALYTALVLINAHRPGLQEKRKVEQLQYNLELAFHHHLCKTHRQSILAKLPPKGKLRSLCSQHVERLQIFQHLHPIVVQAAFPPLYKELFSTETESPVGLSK
The experiment in a line: Inhibition of biotinylated human RORgammat by FRET assay.

The target of test [2] is T1, Nuclear receptor ROR-gamma. Nature of the test: Inverse agonist activity at GAL4-RORgammat LBD (unknown origin) expressed in HEK293 cells measured after 18 to 24 hrs by nuclear receptor assay. The test is classed as cell-based.
Test [3] concerns the target T1, Nuclear receptor ROR-gamma. Nature of the test: Inhibition of RORgammat LBD (unknown origin) expressed in Sf21 cells assessed as fluorescence signal by TR-FRET assay. In general terms: In TR-FRET formats the signal depends on donor and acceptor labels being close together.
Test [4] concerns the target T1, Nuclear receptor ROR-gamma. Nature of the test: Inhibition of GAL4-RORgammat LBD (unknown origin). Format: cell-based, HEK293.

A value given as a limit tells only on which side of the number the result lay.

Broadly, the IC50 is the midpoint of a concentration-inhibition curve. With `Cc1ccc([C@H](NC(=O)Cc2ccc3oc([C@@H](O)c4c(C)noc4C)cc3c2)c2ccccc2)c(C)c1`, the IC50 turned out to be 5 nM in test [1] and 17 nM in test [2]. Take `COc1cc2c(cc1N1CCOCC1)CC(Cc1cccc(C(F)(F)F)c1)C2=O` (centres undefined): in test [3], the IC50 was under 500 nM. As for `Cc1cc(C(F)(F)F)cc2c1cc(Cc1c(Cl)ccc(C(=O)N3CCN(C4COC4)CC3)c1Cl)n2C`, in test [4], the concentration for half-maximal inhibition (IC50) was under 100 nM.

(Values after ChEMBL document CHEMBL5260836, “Combating Autoimmune Diseases With Retinoic Acid Receptor-Related Orphan Receptor-γ (RORγ or RORc) Inhibitors: Hits and Misses” (J Med Chem, 2018).)
